Reference: patent publication US20150133456A1, “FLUOROERGOLINE DERIVATIVES AND USES THEREOF” (MAP PHARMACEUTICALS, INC., priority 2012, published 2015)

How the values were obtained:
human 5-HT1B receptor = human 5-HT1B receptor (Homo sapiens, UniProt P28222); assay: GTPγS agonist assay, 5-HT1B
Description: The mixture was shaken for 2 minutes prior to a 60 min incubation. It was then centrifuged for 10 minutes and counted for 1 minute with a Perkin Elmer TopCount reader. The resulting emission of light was recorded using a luminometer. Agonist percentage activation determinations were obtained by comparing with the Emax of the reference agonist α-methyl-5-HT.

Somatostatin (SST1~SST5) = assay: Somatostatin receptor GTPγS assays; format: biochemical, human
Description: (§1) Reagents used were the following: Assay buffer (20 mM HEPES, pH 7.4; 100 mM NaCl; 10 μg/mL saponin; 30 mM MgCl2); Membranes (recombinant human receptor membrane extracts were thawed on ice and diluted in assay buffer to give 1000 μg/mL ([…]) and kept on ice); GDP (diluted in assay buffer to give 30 μM solution (3 μM final concentration); beads (PVT-WGA (Amersham, RPNQ001), diluted in assay buffer at 25 mg/mL (0.25 mg/10 μL)); GTPγ^35S (Perkin Elmer, NEG030X), diluted in assay buffer to give 0.1 nM (final concentration); and ligand (agonist/antagonist diluted in assay buffer).
(§2) Membranes were mixed with GDP (1:1) and incubated for at least 15 minutes on ice. In parallel GTPγ^35S was mixed with the beads (1:1) just before starting the reaction. The following reagents were successively added in the wells of an Optiplate (Perkin Elmer): 50 μL test compound or reference ligand, 20 μL of the membranes:GDP mix (then 15 minute incubation for antagonist test), 10 μL of reference agonist at historical EC80 (for antagonist test) or 10 μL of assay buffer (for agonist test) and 20 μL of the GTPγ^35S:beads mix. […] The plates were then centrifuged for 10 minutes at 2000 rpm and incubated at room temperature for 1 hour and counted for 1 min/well with a Perkin Elmer TopCount reader.

Adenosine A2a = biological target: T1, Adenosine A2a (Homo sapiens, UniProt P29274); assay: Adenosine A2a cAMP HTRF assay; format: cell-based; details: HEK293, cAMP
T1 construct: expressed in transfected cells; host or cells: HEK293
Description: Cells expressing the human recombinant receptor of interest were grown in media without antibiotic and detached by gentle flushing with PBS-EDTA (5 mM EDTA), recovered by centrifugation and resuspended in assay buffer (KRH: 5 mM KCl, 1.25 mM MgSO4, 124 mM NaCl, 25 mM HEPES, 13.3 mM glucose, 1.25 mM KH2PO4, 1.45 mM CaCl2, 0.5 g/L BSA). Dose response curves were performed in parallel with the reference compounds. For agonist tests (96-well plates), 12 μL of cells was mixed with 12 μL of the test compound at increasing concentrations and then incubated for 30 minutes at room temperature. Lysis buffer was added and after a 1 hour incubation, cAMP concentrations was determined according to the manufacturer specification with the HTRF kit. For antagonist tests (96-well plates), 12 μL of cells was mixed with 6 μL of the test compound at increasing concentrations and then incubated for 10 minutes. 6 μL of the reference agonist was added at a final concentration corresponding to the historical EC80. The plates were then incubated for 30 minutes at room temperature. Lysis buffer was added and after a 1 hour incubation, cAMP concentrations were determined according to the manufacturer specification, with the HTRF kit.

[1] = Metabolism in human liver microsomes; details: 1 μM, 0.2 mg protein/mL
Description: Metabolism of dihydroergotamine (DHE) and 2-CF3 DHE was evaluated in human liver microsomes. DHE mesylate and 2-CF3 DHE mesylate (1 μM each) were incubated separately with human liver microsomes (0.2 mg protein/mL) in triplicate at 37° C. in 0.2 mL (final volume) incubation buffer (50 mM potassium phosphate buffer, pH 7.4, 3 mM MgCl2 and 1 mM EDTA, pH7.4) with or without cofactor, NADPH-generating system. The NADPH-generating system consisted of 1 mM NADP, pH 7.4, 5 mM glucose-6-phosphate, pH 7.4 and 1 unit/mL glucose-6-phosphate dehydrogenase. DHE was added to the incubation mixtures in water. 2-CF3-DHE was added to incubation mixtures in 50:50 (v:v) acetonitrile:water. A low level of acetonitrile in the incubation was maintained to avoid any solvent effects on enzyme activity (typically at 0.5% or lower). Reactions were initiated by the addition of the NADPH-generating system and were terminated at 0, 15, 30 and 60 minutes after initiation by the addition of […], of stop reagent (acetonitrile) containing two internal standards (4′-hydroxydiclofenac-d4 and 1′-hydroxymidazolam-d4, 200 and 50 ng/mL in the final stopped incubation, respectively). The samples were then centrifuged and the supernatant fractions were analyzed by LC/MS/MS to quantify the formation of 8′-OH-DHE (metabolite) in the DHE samples and DHE and 8′-OH-DHE in the 2-CF3-DHE samples.

D2 receptor = biological target: T2, D2 receptor (Homo sapiens, UniProt P14416); assay: Agonist activity at the D2 receptor; format: cell-based; details: read-out: EC50, D2 receptor agonism
T2 construct: expressed in transfected cells
Description: The assay was performed analogously to the assay described in Example 4.

Opioid (OP1/OP2/OP3) = assay: Opioid receptor GTPγS assays; format: biochemical, human
Description: as §1, §2

OX1 = biological target: T3, OX1 (Homo sapiens, UniProt O43613); assay: Orexin receptor Aequorin assay; format: cell-based; details: antagonism
T3 construct: expressed in transfected cells; host or cells: CHO-AEQ (CHO-K1 with mitochondrial apoaequorin)
Description: CHO-K1 cells coexpressing mitochondrial apoaequorin and the recombinant human receptor of interest were grown to mid-log phase in culture media without antibiotics and then detached with PBS-EDTA, centrifuged and resuspended in assay buffer (DMEM/HAM's F12 with HEPES, without phenol red+0.1% BSA, protease free) at a concentration of 1×10^6 cell/mL. Cells were incubated at room temperature for at least 4 hours with coelenterazine h. Reference agonist/antagonist was tested to evaluate the performance of the assay and to determine EC50/IC50.
50 μL of the cell suspension was mixed with 50 μL of test or reference agonist in a 96-well plate. […] For antagonist testing, 100 μL of the reference agonist at its EC80 was injected on the mix of cells and test compound, following an incubation of 15 minutes after the first injection. The resulting emission of light was r recorded using Hamamatsu Functional Drug Screening System 6000 (FDSS 6000) luminometer. To standardize the emission of recorded light (and determine of the “100% signal”) across plates and across different experiments, some wells contained 100 μM digitonin or a saturating concentration of ATP (20 μM).

α1D receptor = biological target: T4, α1D receptor (Homo sapiens, UniProt P25100); assay: Competitive antagonist activity, adrenergic α1D; format: cell-based; details: read-out: IC50, α1D antagonism
T4 construct: expressed in transfected cells
T4 sequence (P25100 whole entry): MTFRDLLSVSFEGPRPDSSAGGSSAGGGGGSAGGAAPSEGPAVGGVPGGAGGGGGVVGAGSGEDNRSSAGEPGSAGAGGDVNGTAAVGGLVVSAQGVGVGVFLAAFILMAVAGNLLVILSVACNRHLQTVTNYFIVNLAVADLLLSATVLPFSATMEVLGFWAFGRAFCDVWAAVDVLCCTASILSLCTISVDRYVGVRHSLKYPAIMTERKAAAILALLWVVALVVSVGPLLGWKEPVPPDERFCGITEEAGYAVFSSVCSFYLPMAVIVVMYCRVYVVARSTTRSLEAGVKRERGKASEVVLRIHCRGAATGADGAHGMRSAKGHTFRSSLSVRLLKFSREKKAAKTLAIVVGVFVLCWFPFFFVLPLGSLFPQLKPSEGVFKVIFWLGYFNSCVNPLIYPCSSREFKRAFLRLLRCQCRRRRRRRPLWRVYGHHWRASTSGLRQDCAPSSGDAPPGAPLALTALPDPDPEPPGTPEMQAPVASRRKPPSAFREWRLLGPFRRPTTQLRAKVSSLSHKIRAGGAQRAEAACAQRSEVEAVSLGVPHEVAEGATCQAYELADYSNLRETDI

T1 sequence (P29274 whole entry): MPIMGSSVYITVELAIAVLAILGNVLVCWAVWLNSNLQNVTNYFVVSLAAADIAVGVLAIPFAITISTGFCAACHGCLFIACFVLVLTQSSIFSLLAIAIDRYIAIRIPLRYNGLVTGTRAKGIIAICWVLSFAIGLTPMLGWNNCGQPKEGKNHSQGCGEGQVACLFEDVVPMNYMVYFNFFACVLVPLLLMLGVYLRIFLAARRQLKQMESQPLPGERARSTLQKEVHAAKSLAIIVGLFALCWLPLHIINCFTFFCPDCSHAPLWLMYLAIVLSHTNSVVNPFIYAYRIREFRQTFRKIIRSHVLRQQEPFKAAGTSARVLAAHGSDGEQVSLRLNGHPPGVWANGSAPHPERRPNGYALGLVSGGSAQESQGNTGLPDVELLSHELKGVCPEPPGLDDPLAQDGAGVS
T2 sequence (P14416 whole entry): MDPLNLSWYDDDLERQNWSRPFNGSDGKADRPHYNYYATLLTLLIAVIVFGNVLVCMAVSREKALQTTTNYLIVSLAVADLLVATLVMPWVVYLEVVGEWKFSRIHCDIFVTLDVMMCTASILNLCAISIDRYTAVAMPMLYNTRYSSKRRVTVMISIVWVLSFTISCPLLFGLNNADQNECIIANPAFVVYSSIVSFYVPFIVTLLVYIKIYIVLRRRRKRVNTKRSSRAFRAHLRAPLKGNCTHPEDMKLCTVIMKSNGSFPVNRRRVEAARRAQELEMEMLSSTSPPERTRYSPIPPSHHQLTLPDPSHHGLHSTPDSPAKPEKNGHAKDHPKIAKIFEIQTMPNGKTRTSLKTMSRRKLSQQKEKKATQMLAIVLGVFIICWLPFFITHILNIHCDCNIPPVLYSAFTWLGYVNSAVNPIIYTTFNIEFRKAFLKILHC
T3 sequence (O43613 whole entry): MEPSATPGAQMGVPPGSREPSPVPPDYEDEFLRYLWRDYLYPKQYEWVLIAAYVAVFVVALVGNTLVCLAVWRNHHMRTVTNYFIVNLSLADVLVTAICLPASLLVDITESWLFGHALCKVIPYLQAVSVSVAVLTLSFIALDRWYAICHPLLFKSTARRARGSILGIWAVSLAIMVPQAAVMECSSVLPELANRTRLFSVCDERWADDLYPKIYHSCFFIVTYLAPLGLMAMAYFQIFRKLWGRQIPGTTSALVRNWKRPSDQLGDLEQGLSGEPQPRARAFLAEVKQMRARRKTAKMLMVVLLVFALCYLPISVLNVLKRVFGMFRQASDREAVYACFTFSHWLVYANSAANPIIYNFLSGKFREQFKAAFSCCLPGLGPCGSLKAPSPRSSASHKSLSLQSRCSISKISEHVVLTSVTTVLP
human 5-HT1B receptor, sequence (P28222 whole entry): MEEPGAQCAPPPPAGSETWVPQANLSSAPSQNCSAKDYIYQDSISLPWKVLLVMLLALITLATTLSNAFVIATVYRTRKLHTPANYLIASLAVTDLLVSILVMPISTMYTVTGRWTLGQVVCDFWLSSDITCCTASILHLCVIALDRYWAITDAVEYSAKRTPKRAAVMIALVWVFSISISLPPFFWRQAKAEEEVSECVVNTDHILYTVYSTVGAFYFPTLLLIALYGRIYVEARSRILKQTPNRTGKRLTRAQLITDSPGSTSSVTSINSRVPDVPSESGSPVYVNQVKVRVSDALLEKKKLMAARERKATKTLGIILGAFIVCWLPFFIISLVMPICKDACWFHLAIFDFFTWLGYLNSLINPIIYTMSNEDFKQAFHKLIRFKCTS

Q: Which EC50 (human 5-HT1B receptor) does the source give for `CN1C[C@H](C(=O)N[C@]2(C)O[C@@]3(O)[C@@H]4CCCN4C(=O)[C@H](Cc4ccccc4)N3C2=O)CC2c3cccc4[nH]c(C(F)(F)F)c(c34)CC21` (stereo partly shown) [2-CF3-dihydroergotamine] here?
A: 0.406 µM

Q: And the “Activity (Agonism: EC50; Antagonism: IC50)” value (Somatostatin (SST1~SST5))?
A: Inactive

Q: What about the Emax (Adenosine A2a) of the same compound?
A: 25%

Q: And the EC50 (Adenosine A2a; read-out: EC50, Adenosine A2a agonism)?
A: 0.00527 µM

Q: And the “metabolism by human liver microsomes in the presence of NADPH” value ([1]; 0 to 60 minutes)?
A: extensively metabolized

Q: And the “intrinsic clearance, slower than that of DHE” value ([1]; with NADPH)?
A: about 85%

Q: And the EC50 (D2 receptor)?
A: 0.218 µM

Q: And the “Activity (Agonism: EC50; Antagonism: IC50)” value (Opioid (OP1/OP2/OP3))?
A: Inactive

Q: What about the IC50 (OX1) of the same compound?
A: > 10 µM

Q: What about the IC50 (α1D receptor) of the same compound?
A: 0.0402 µM
